Test systems include SF-539 CNS; HCT-15 colon; MOLT-4 leukemia; NCI-H460 lung; KM12 colon; CAKI-1 renal; HCC-2998 colon; RPMI-8226 leukemia; 786-0 renal; UACC-62 melanoma.
Holding throughout (test): inhibition of tumour cell growth, NCI panel, 48 h

Structures are written as SMILES. Where “and” joins values, the source holds several entries; their conditions need not be identical. Identical values can stand only once.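 Five compound concentrations were applied to cells in 96-well plates for 48 hours; endpoints were derived by simple linear interpolation of the resulting dose-response curve. GI50 marks 50% less growth. TGI marks complete inhibition of growth.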

Turning to `CC(=O)O[C@H]1C(N(C)C(=O)c2ccccc2)CC[C@]2(C)C3CC[C@@]4(C)C(CC(O)[C@@H]4C(C)N(C)C)[C@@H]3CCC12` (some centres not stated), the TGI in the assay with SF-539 CNS, in the assay on HCT-15 colon, in the assay on MOLT-4 leukemia, in the assay on NCI-H460 lung, in the assay on KM12 colon and in the assay with CAKI-1 renal was greater than 100 µM each time. The TGI in the assay on HCC-2998 colon, in the assay on RPMI-8226 leukemia, with 786-0 renal and in the assay with UACC-62 melanoma was greater than 100 µM each time.
Turning to `COc1cc(C2c3cc4c(cc3[C@@H](Nc3ccc(C(=O)O)cc3)C3COC(=O)[C@H]23)OCO4)cc(OC)c1O` (some centres not stated), the TGI was 32.7 µM and > 17.5 µM in the assay with SF-539 CNS; 32.8 µM and > 17.5 µM in the assay with HCT-15 colon; 5.47 µM and 2.66 µM with MOLT-4 leukemia; 17.6 µM and > 17.5 µM in the assay on NCI-H460 lung; 68.5 µM and > 17.5 µM in the assay with KM12 colon; 47.1 µM and > 17.5 µM in the assay with CAKI-1 renal. In addition, the TGI with HCC-2998 colon was 53.8 µM and > 17.5 µM; in the assay on RPMI-8226 leukemia it was 30.2 µM and 6.54 µM; in the assay with 786-0 renal it was 35 µM and > 17.5 µM; in the assay on UACC-62 melanoma, 28.2 µM and > 17.5 µM. Moreover, the GI50 was 5.7 µM and 2.71 µM with RPMI-8226 leukemia; 12.3 µM and 3.07 µM in the assay with 786-0 renal.
In the case of `CCCCCCNC(=O)C1=C(C)NC(C)=C(C(=O)NCCCCCC)C1`, the TGI in the assay on SF-539 CNS, in the assay with HCT-15 colon, with MOLT-4 leukemia, in the assay on NCI-H460 lung, in the assay with KM12 colon and in the assay on CAKI-1 renal was greater than 100 µM each time. Besides, the TGI in the assay on HCC-2998 colon, with RPMI-8226 leukemia, in the assay with 786-0 renal and in the assay on UACC-62 melanoma was greater than 100 µM each time.
Take `COc1cc2c(cc1OCc1ccccc1)N=C[C@@H]1C/C(=C/C(=O)NCCCN3C(=O)c4cccc5cccc(c45)C3=O)CN1C2=O`: the GI50 in the assay with SF-539 CNS was 0.332 µM; in the assay with HCT-15 colon, 3.96 µM; in the assay on MOLT-4 leukemia, 0.0553 µM; in the assay on NCI-H460 lung it was 0.603 µM; in the assay on KM12 colon, 1.09 µM; in the assay with CAKI-1 renal it was 2.14 µM. Moreover, the GI50 with HCC-2998 colon was 0.142 µM; in the assay with RPMI-8226 leukemia, 0.432 µM; with 786-0 renal, 0.423 µM; in the assay on UACC-62 melanoma it was 0.599 µM. The TGI in the assay on SF-539 CNS was 1.47 µM; in the assay on HCT-15 colon it was greater than 100 µM; in the assay with MOLT-4 leukemia, 63.9 µM; with NCI-H460 lung it was 7.15 µM; in the assay on KM12 colon, 6.59 µM; in the assay on CAKI-1 renal, 19.7 µM. In addition, the TGI is 1.26 µM in the assay on HCC-2998 colon, greater than 100 µM in the assay with RPMI-8226 leukemia, 11 µM in the assay with 786-0 renal and 2.55 µM in the assay on UACC-62 melanoma.
On to `COc1cc(OC2OC(C)C(O)C(O)C2O)cc2oc(-c3ccc(O)cc3)c(CC=C(C)C)c(=O)c12` (configuration not stated), for which the GI50 with SF-539 CNS is 19.5 µM; in the assay on HCT-15 colon, 16.8 µM; in the assay on MOLT-4 leukemia, 3.45 µM; in the assay on NCI-H460 lung it was 14.7 µM; with KM12 colon, 12.2 µM; in the assay on CAKI-1 renal it was 14.1 µM. Besides, the GI50 is 16.6 µM in the assay on HCC-2998 colon, 9.02 µM in the assay with RPMI-8226 leukemia, 11.7 µM in the assay on 786-0 renal and 12.8 µM in the assay with UACC-62 melanoma. For the same molecule, the TGI was found to be 44.2 µM in the assay with SF-539 CNS; 52.1 µM in the assay with HCT-15 colon; 17.7 µM in the assay on MOLT-4 leukemia; 38.7 µM in the assay with NCI-H460 lung; 31 µM with KM12 colon; 40.7 µM in the assay on CAKI-1 renal. Also, the TGI was found to be 40.8 µM in the assay with HCC-2998 colon, 26.6 µM in the assay on RPMI-8226 leukemia, 60 µM in the assay on 786-0 renal and 31.9 µM in the assay on UACC-62 melanoma.

Values taken from PubChem BioAssay (NCI).
